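Five concentrations, 48 hours, 96-well plates. Here, GI50 denotes the concentration required for 50% inhibition of growth.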 Active and inactive are the calls of the source. No stated cut-off is given here; in the data, active = GI50 up to about 1.1 µM and inactive = higher.

From ChEMBL document CHEMBL1201862, “PubChem BioAssay data set” (2004) come the findings set out here.

Some test systems named below: U-251; NCI-H522; EKVX; HCT-116; A549; SK-OV-3; LOX IMVI; NCI-H226; MCF7; SN12C; TK-10; BT-549; HCT-15; Hs-578T; OVCAR-5; ACHN; HT-29; DU-145; HL-60; HOP-62.
Holding throughout (experiment): NCI-60 cell line screen, 48 h

For the compound `Cc1ccc(Nc2c3c(c(C#N)c4nc5ccccc5n24)CCCC3)cc1`, the GI50 was 17.5 µM (inactive) with U-251; 14.3 µM (inactive) with NCI-H522; 17.3 µM (inactive) with EKVX; 10.9 µM (inactive) in the assay with HCT-116; 12.5 µM (inactive) in the assay with A549; 38 µM (inactive) with SK-OV-3. For the same compound, the GI50 in the assay on LOX IMVI was 22.1 µM (inactive); in the assay with NCI-H226, 21.7 µM (inactive); in the assay on MCF7 it was 9.89 µM (inactive); with SN12C, 17.4 µM (inactive); in the assay with TK-10, 25.5 µM (inactive); in the assay on BT-549, 35.8 µM (inactive). In addition, the GI50 was 16.9 µM in the assay with HCT-15; > 100 µM (inactive) with Hs-578T; 34 µM (inactive) in the assay on OVCAR-5; 21.6 µM (inactive) in the assay with ACHN; 13.6 µM (inactive) with HT-29; 52.7 µM (inactive) in the assay on DU-145. Besides, the GI50 with HL-60 is 5.53 µM (inactive).
`CCOC(=O)N1N=C(/C(C)=N/OC)C(C)[S+]1[O-]` (stereo not drawn): the GI50 in the assay with U-251, in the assay with NCI-H522, in the assay with EKVX, in the assay on HCT-116, with A549 and with SK-OV-3 was > 100 µM (inactive) throughout. For the same compound, the GI50 in the assay with HOP-62, with NCI-H226, with MCF7, with SN12C, with TK-10 and in the assay on BT-549 was > 100 µM (inactive) throughout. For the same compound, the GI50 with HCT-15 is over 100 µM; in the assay on Hs-578T, > 100 µM (inactive); with OVCAR-5, > 100 µM (inactive); with ACHN, > 100 µM (inactive); in the assay with HT-29 it was > 100 µM (inactive); in the assay with DU-145, > 100 µM (inactive). Further, in the assay on HL-60, the GI50 was > 100 µM (inactive).
For the compound `CC(=O)Nc1ccc(NC(=O)c2c(Cl)c(Cl)c(Cl)c(Cl)c2-c2nc3ccccc3[nH]2)cc1`, the GI50 was 36.7 µM (inactive) with NCI-H522; 33.3 µM (inactive) with EKVX; 32.1 µM (inactive) in the assay with HCT-116; 36.4 µM (inactive) in the assay on A549; 63.4 µM (inactive) in the assay with SK-OV-3; 53.3 µM (inactive) with HOP-62. The GI50 with NCI-H226 was 35.4 µM (inactive); in the assay with MCF7, 26.7 µM (inactive); in the assay with SN12C, 35.4 µM (inactive); with BT-549, 43.1 µM (inactive); with HCT-15, 85.1 µM; in the assay with Hs-578T, 77.4 µM (inactive). Also, the GI50 was 67.1 µM (inactive) in the assay on OVCAR-5; 39.2 µM (inactive) in the assay on ACHN; 35.7 µM (inactive) with HT-29; 46.8 µM (inactive) in the assay with DU-145; 25.9 µM (inactive) with HL-60.
Regarding `CC1(C)CCC[C@](C)([C@H]2CC[C@]3(C)[C@@H]2[C@H](O)C[C@@H]2[C@@]4(C)CC[C@H](O)C(C)(C)[C@@H]4[C@H](O)C[C@]23C)O1`, the GI50 was 12.3 µM (inactive) in the assay on U-251; 12.1 µM (inactive) in the assay with NCI-H522; 13.6 µM (inactive) with EKVX; 15.9 µM (inactive) in the assay with HCT-116; 9.68 µM (inactive) with A549; 16.9 µM (inactive) in the assay with SK-OV-3. The GI50 in the assay with LOX IMVI was 17.5 µM (inactive); with NCI-H226 it was 15.7 µM (inactive); in the assay with MCF7, 9.73 µM (inactive); in the assay with SN12C, 14.3 µM (inactive); in the assay on TK-10 it was 11.3 µM (inactive); in the assay on BT-549 it was 13.8 µM (inactive). The GI50 was 11.6 µM in the assay on HCT-15; 12.9 µM (inactive) with Hs-578T; 20.1 µM (inactive) in the assay on OVCAR-5; 12.1 µM (inactive) in the assay on ACHN; 3.55 µM (inactive) in the assay on HT-29; 15.8 µM (inactive) with DU-145. In the assay on HL-60, the GI50 is 2.16 µM (inactive).
As for `CNc1ccc(C(=O)CC(O)CCC(C)C2OC(=O)CC(O)CC(=O)CC(O)CC(O)CC(O)CC(O)CC3(O)CC(O)C(C(=O)N4CCOCC4)C(CC(OC4OC(C)C(O)C(N)C4O)\C=C/C=C\C=C/C=C/C=C/C=C\C=C/C2C)O3)cc1` (stereo not drawn), the GI50 with U-251 was 0.243 µM (active); with NCI-H522, 0.244 µM (active); in the assay on HCT-116, 0.504 µM (active); in the assay on A549, 0.275 µM (active); with SK-OV-3, 0.418 µM (active); with HOP-62 it was 0.351 µM (active). Further, the GI50 in the assay on LOX IMVI is 0.243 µM (active); with NCI-H226 it was 0.277 µM (active); with MCF7 it was 0.285 µM (active); in the assay on SN12C, 0.229 µM (active); in the assay on TK-10, 0.247 µM (active); in the assay on BT-549, 0.241 µM (active). Also, the GI50 with HCT-15 is 0.308 µM; in the assay on Hs-578T, 0.294 µM (active); in the assay on OVCAR-5 it was 0.607 µM (active); with ACHN, 0.19 µM (active); in the assay with HT-29 it was 0.232 µM (active); in the assay on DU-145, 0.527 µM (active). The GI50 in the assay on HL-60 is 0.373 µM (active).
As for `O=C1NC(O)CCN1C1CC(O)C(CO)O1` (stereo not drawn), the GI50 with U-251, in the assay on NCI-H522, in the assay on EKVX, in the assay with HCT-116, in the assay with A549 and in the assay on SK-OV-3 was > 100 µM (inactive) throughout. Moreover, the GI50 with HOP-62, in the assay with LOX IMVI, with NCI-H226, with MCF7, in the assay on SN12C and with TK-10 was > 100 µM (inactive) throughout. The GI50 is > 100 µM (inactive) in the assay with BT-549; over 100 µM in the assay on HCT-15; > 100 µM (inactive) with Hs-578T; > 100 µM (inactive) with OVCAR-5; > 100 µM (inactive) in the assay with ACHN; > 100 µM (inactive) in the assay with DU-145. Further, the GI50 in the assay with HL-60 is > 100 µM (inactive).
With `CCOC(=O)C1=C(C)N(CC(C)C)C2(O)C(OC)CC(=O)C3C(=O)N(c4ccccc4)C(=O)C132` (stereo not drawn), the GI50 in the assay with U-251 was 45.4 µM (inactive); in the assay with NCI-H522 it was 16.5 µM (inactive); with EKVX, > 100 µM (inactive); in the assay with HCT-116 it was 40.5 µM (inactive); in the assay on A549 it was 43.4 µM (inactive); in the assay with HOP-62, 68.7 µM (inactive). Further, the GI50 with LOX IMVI was 31.3 µM (inactive); in the assay with NCI-H226, 26.1 µM (inactive); with MCF7, 35.5 µM (inactive); with SN12C, 36 µM (inactive); in the assay with TK-10 it was 77.1 µM (inactive); with BT-549, 40.4 µM (inactive). In addition, the GI50 with HCT-15 is 23.3 µM; with Hs-578T, 92.3 µM (inactive); in the assay on OVCAR-5, > 100 µM (inactive); in the assay with ACHN, 24.9 µM (inactive); with HT-29, 20.7 µM (inactive); in the assay on DU-145, 52 µM (inactive). Besides, in the assay with HL-60, the GI50 is 25 µM (inactive).
Turning to `COC(=O)c1ccc(CCC2=CC(=O)C=CC2=O)cc1`, the GI50 is 11.2 µM (inactive) in the assay on U-251; 1.62 µM (inactive) in the assay on NCI-H522; 16 µM (inactive) with EKVX; 7.8 µM (inactive) in the assay with HCT-116; 23.5 µM (inactive) with A549; 19.1 µM (inactive) in the assay with HOP-62. Besides, the GI50 was 6.4 µM (inactive) with LOX IMVI; 16.7 µM (inactive) with NCI-H226; 6.59 µM (inactive) in the assay on MCF7; 24.5 µM (inactive) with SN12C; 19 µM (inactive) in the assay on TK-10; 12 µM (inactive) in the assay on BT-549. Further, the GI50 in the assay with HCT-15 is 5.52 µM; in the assay with Hs-578T it was 24.8 µM (inactive); in the assay on OVCAR-5, 18.2 µM (inactive); in the assay on ACHN, 7.71 µM (inactive); in the assay on HT-29, 23.1 µM (inactive); in the assay with DU-145, 18.2 µM (inactive). The GI50 in the assay on HL-60 is 0.728 µM (active).
`O=C(NC(Cc1c[nH]c2ccccc12)C(=O)O)/C(=C/c1ccccc1O)NC(=O)c1ccccc1` (stereo not drawn): the GI50 in the assay on U-251 is 39.1 µM (inactive); in the assay with NCI-H522 it was 20.4 µM (inactive); with EKVX, 29.2 µM (inactive); in the assay with HCT-116, 42.6 µM (inactive); in the assay with A549, 60.5 µM (inactive); in the assay with SK-OV-3, 22.3 µM (inactive). Also, the GI50 in the assay on LOX IMVI is 33 µM (inactive); in the assay with NCI-H226 it was 16.3 µM (inactive); in the assay on MCF7, 3.08 µM (inactive); with SN12C, 24.7 µM (inactive); in the assay with TK-10, 37.7 µM (inactive); in the assay with BT-549, 18.4 µM (inactive). Further, the GI50 in the assay on HCT-15 was 25.6 µM; with Hs-578T, 24.6 µM (inactive); with OVCAR-5 it was > 100 µM (inactive); in the assay on ACHN it was 19.2 µM (inactive); with HT-29, > 100 µM (inactive); with DU-145, 43.4 µM (inactive). The GI50 in the assay on HL-60 is > 100 µM (inactive).
For `O=C1C2C(C(=O)N1c1ccccc1)C1(c3ccccc3)CCC2(C(=O)c2ccccc2)O1` (stereo not drawn), the GI50 with U-251, in the assay with NCI-H522, with EKVX, with HCT-116, with A549 and in the assay on SK-OV-3 was > 10 µM (inactive) throughout. For the same compound, the GI50 in the assay on HOP-62, with LOX IMVI, in the assay on MCF7, with SN12C, in the assay with TK-10 and in the assay with BT-549 was > 10 µM (inactive) in each case. The GI50 with HCT-15 is over 10 µM; with Hs-578T, > 10 µM (inactive); with OVCAR-5 it was > 10 µM (inactive); in the assay on ACHN it was > 10 µM (inactive); with HT-29 it was > 10 µM (inactive); in the assay with DU-145, > 10 µM (inactive). The GI50 in the assay with HL-60 was > 10 µM (inactive).
